The results in this text go back to patent publication US20070010397A1, “Safeners and their application” (priority 2003, published 2007).

Data set [1] deals with wheat (variety: Norin No.61). The data set is described as follows: Test for safening effect against phytotoxicity of herbicidal compounds against wheat. Format: in vivo. The following applies: for Phytotoxicity %: wheat seeds in dish, after 5 days; for Expected value E by Colby's equation (Phytotoxicity %): wheat. How it is done: Preparation of Test Solution
Carrier: Acetone 5 parts by weight
Surfactant: Benzyloxy polyglycol ether 1 part by weight
A prescribed amount of the test solution is prepared by diluting with water the formulation obtained by mixing the above-mentioned carrier and surfactant with 1 part by weight of the active compounds (safeners and herbicidal compounds).
Test Example 1: Test for Safening Effect against Phytotoxicity of Herbicidal Compounds against Wheat
Seeds of wheat (variety: Norin No.61) were sown on absorbent cotton in a dish, containing the previously prepared, diluted solution with the prescribed concentration of the test compounds, and grown in a climate chamber. After 5 days the degree of phytotoxicity, particularly bleaching state, was observed and evaluated in 0-100%.
100% =Complete bleaching or withering state
(§1) Test results were evaluated by Colby's equation. Colby's equation: [formula]
E: Expected value of phytotoxicity by mixing
X: Measured value of phytotoxicity by one active compound • Y: Measured value of phytotoxicity by the other active compound Table 1

For data set [2], the system named is paddy rice (variety: Nipponbare). Kind of data set: Test for safening effect against phytotoxicity of herbicidal compounds against paddy rice. The format is in vivo. The protocol:
as §1
Test Example 2: Test for Safening Effect against Phytotoxicity of Herbicidal Compounds against Paddy Rice (Method)
Two seedlings of paddy rice (variety: Nipponbare) of 2.5 leaf stage were transplanted in a plastic pot under submerged conditions with a trnsplantation depth of 0 cm. A diluted solution with the prescribed concentration of the 4% granules of the compound No. I-1 and herbicidal compounds were applied on the water surface. Three weeks after the application the degree of phytotoxicity was observed and evaluated in 0-100%.
100%=Complete withering state

[3] abbreviates: safener 10 ppm alone (H-1 0 ppm), 0% = no phytotoxicity, 100% = complete bleaching or withering.
The mark [4] stands for this setting: safener 50 ppm alone (H-1 0 ppm).

As for `N#Cc1ccccc1NC(=O)c1snc(Cl)c1Cl` [No. I-1], the Phytotoxicity % in data set [1] (safener 10 ppm + H-1 10 ppm) was determined as 20%; in data set [1] (setting [3]) it was 0%; in data set [1] (safener 50 ppm + H-1 10 ppm), 20%; in data set [1] (setting [4]), 0%; in data set [2] (paddy rice 2.5 leaf stage, three weeks after application, No. I-1 (4% granules) 1 kg/ha alone, herbicide 0 kg/ha) it was 0%. Besides, the “Expected value E by Colby's equation (Phytotoxicity %)” value (from here on “Expected value E … (Phytotoxicity %)”) in data set [1] (safener 10 ppm + H-1 10 ppm) and in data set [1] (safener 50 ppm + H-1 10 ppm) was 50% throughout.
For `CCC(C)c1ccc(NC(=O)c2snc(Cl)c2Cl)cc1` (stereo not drawn) [No. I-4], the Phytotoxicity % in data set [1] (safener 10 ppm + H-1 10 ppm) was 10%; in data set [1] (setting [3]), 0%; in data set [1] (safener 50 ppm + H-1 10 ppm), 5%; in data set [1] (setting [4]), 0%. The “Expected value E … (Phytotoxicity %)” value in data set [1] (safener 10 ppm + H-1 10 ppm) and in data set [1] (safener 50 ppm + H-1 10 ppm) was 50% in each case.
For `CCN(CC)Cc1ccc(CNC(=O)c2snc(Cl)c2Cl)cc1` [No. I-6], the Phytotoxicity % in data set [1] (safener 10 ppm + H-1 10 ppm) was 15%; in data set [1] (setting [3]), 0%; in data set [1] (safener 50 ppm + H-1 10 ppm), 15%; in data set [1] (setting [4]) it was 0%. The “Expected value E … (Phytotoxicity %)” value in data set [1] (safener 10 ppm + H-1 10 ppm) and in data set [1] (safener 50 ppm + H-1 10 ppm) was 50% each time.
On to `CS(=O)(=O)c1ccc(C(=O)C2=C(O)CCCC2=O)c(Cl)c1COCC1CCCO1` (stereo not drawn) [H-1], for which the Phytotoxicity % in data set [1] (H-1 10 ppm alone (safener 0 ppm)) is listed as 50%; in data set [2] (paddy rice, three weeks after application, H-1 0.6 kg/ha + No. I-1 1 kg/ha) it was 10%; in data set [2] (paddy rice, three weeks after application, H-1 0.6 kg/ha alone (No. I-1 0 kg/ha)), 30%. In addition, the “Expected value E … (Phytotoxicity %)” value in data set [2] (paddy rice, H-1 0.6 kg/ha + No. I-1 1 kg/ha) was determined as 30%.
With `COC(=O)c1ccccc1CS(=O)(=O)NC(=O)Nc1nc(OC)cc(OC)n1` [H-2, Bensuiliron-methyl], the “Phytotoxicity %” value in data set [2] (in vivo) is listed as 40%.
For the compound `Cc1ccc(NC(=O)c2snc(Cl)c2Cl)c(C)c1` [No. I-2], the Phytotoxicity % amounted to 30% in data set [1] (safener 10 ppm + H-1 10 ppm), 0% in data set [1] (setting [3]), 10% in data set [1] (safener 50 ppm + H-1 10 ppm) and 0% in data set [1] (setting [4]). In addition, the “Expected value E … (Phytotoxicity %)” value in data set [1] (safener 10 ppm + H-1 10 ppm) and in data set [1] (safener 50 ppm + H-1 10 ppm) was 50% throughout.
Take `CC(C)(C)CSCc1ccc(NC(=O)c2snc(Cl)c2Cl)cc1` [No. I-7]: the Phytotoxicity % was 30% in data set [1] (safener 10 ppm + H-1 10 ppm), 0% in data set [1] (setting [3]), 20% in data set [1] (safener 50 ppm + H-1 10 ppm) and 0% in data set [1] (setting [4]). Also, the “Expected value E … (Phytotoxicity %)” value in data set [1] (safener 10 ppm + H-1 10 ppm) and in data set [1] (safener 50 ppm + H-1 10 ppm) was 50% each time.
Regarding `CCC(CC)c1ccc(NC(=O)c2snc(Cl)c2Cl)cc1` [No. I-5], the Phytotoxicity % in data set [1] (safener 10 ppm + H-1 10 ppm) is recorded as 30%; in data set [1] (setting [3]), 0%; in data set [1] (safener 50 ppm + H-1 10 ppm), 10%; in data set [1] (setting [4]), 0%. Further, the “Expected value E … (Phytotoxicity %)” value in data set [1] (safener 10 ppm + H-1 10 ppm) and in data set [1] (safener 50 ppm + H-1 10 ppm) was 50% throughout.
For the compound `CCOC(=O)[C@@H](C)Oc1ccc(Oc2nc3ccc(Cl)cc3o2)cc1` [H-3, Fenoxaprop-P-ethyl], the “Phytotoxicity %” value in data set [2] (paddy rice, three weeks after application, H-3 0.1 kg/ha + No. I-1 1 kg/ha) is listed as 40%; in data set [2] (paddy rice, three weeks after application, H-3 0.1 kg/ha alone (No. I-1 0 kg/ha)) it was 70%. In addition, the “Expected value E … (Phytotoxicity %)” value in data set [2] (paddy rice, H-3 0.1 kg/ha + No. I-1 1 kg/ha) turned out to be 70%.
With `CN(C)CNC(=O)c1snc(Cl)c1Cl` [No. I-3], the Phytotoxicity % in data set [1] (safener 10 ppm + H-1 10 ppm) is recorded as 5%; in data set [1] (setting [3]) it was 0%; in data set [1] (safener 50 ppm + H-1 10 ppm), 0%; in data set [1] (setting [4]) it was 0%. Also, the “Expected value E … (Phytotoxicity %)” value in data set [1] (safener 10 ppm + H-1 10 ppm) and in data set [1] (safener 50 ppm + H-1 10 ppm) was 50% in each case.
